# Results as given in patent publication US20260184687A1, “DIHYDROINDENE DERIVATIVES AS MALT1 INHIBITORS” (C4X Discovery Limited, priority 2022, published 2026).
# pIC50: −log10 of the molar value.
# Test system: IL-2 release from stimulated Jurkat cells
# Test: Human IL-2 Release Phenotypic Assay (Assay 3)
# Format: cell-based
# Details: Homo sapiens, Jurkat, 48 h, Jurkat cells (clone E6-1), 200 ng/mL PMA + 300 ng/mL ionomycin, IL-2 by ELISA
# How it was run: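 Jurkat E6-1 cells in RPMI1640/10% FBS were seeded at 50 000 cells/well and incubated overnight at 37° C. Half-log compound dilutions (0.5% final DMSO) were added for 30 min, then cells were stimulated with 200 ng/mL PMA + 300 ng/mL ionomycin for 48 h. IC50 came from a 4-parameter non-linear regression fit.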
row,Compound,pIC50
1,"CN(C(=O)C1CN(S(C)(=O)=O)C1)[C@@H](c1ccc(NC2Cc3ccccc3C2(C)C)cn1)C(F)(F)F (single isomer, unassigned) [Example 209]",6.42
2,"CC(=O)N1CCC12CC(C(=O)N(C)[C@@H](c1ccc(NC3Cc4ccccc4C3(C)C)cn1)C(F)(F)F)C2 (single isomer, unassigned) [Example 235]",6.00
3,"COCCN1CCC12CC(C(=O)N(C)[C@@H](c1ccc(NC3Cc4ccccc4C3(C)C)cn1)C(F)(F)F)C2 (single isomer, unassigned) [Example 243]",6.19
4,"CN(C(=O)C1CC2(CCN2CCO)C1)[C@@H](c1ccc(NC2Cc3ccccc3C2(C)C)cn1)C(F)(F)F (single isomer, unassigned) [Example 249]",6.46
5,"CN1CC(C(=O)N(C)[C@@H](c2ccc(N[C@H]3Cc4ccccc4C3(C)C)cn2)C(F)(F)F)CCC1=O (single isomer, unassigned) [Example 252]",6.23
6,"CN(C(=O)C1CCS(=O)(=O)CC1)[C@@H](c1ccc(NC2Cc3cccc(C4CC4)c3C2)cn1)C(F)(F)F (single isomer, unassigned) [Example 254]",5.85

# More lines, now with the values ahead:
row,pIC50,Compound
1,6.60,"CN(C(=O)[C@H]1C[C@@]2(COC(=O)N2)C1)[C@@H](c1ccc(NC2Cc3ccccc3C2(C)C)cn1)C(F)(F)F (single isomer, unassigned) [Example 208]"
2,6.47,"CN(C(=O)C1CC2(CCC(=O)N2)C1)[C@@H](c1ccc(NC2Cc3ccccc3C2(C)C)cn1)C(F)(F)F (single isomer, unassigned) [Example 230]"
3,6.52,"CN1CCC(C(=O)N(C)[C@@H](c2ccc(N[C@H]3Cc4ccccc4C3(C)C)cn2)C(F)(F)F)CC1=O (single isomer, unassigned) [Example 250]"

# Same assay, conditions: Jurkat cells (clone E6-1), 200 ng/mL PMA + 300 ng/mL ionomycin, 48 hours, IL-2 by ELISA
row,Compound,pIC50
1,"CN(C(=O)C1C2CS(=O)(=O)CC21)[C@@H](c1ccc(NC2Cc3ccccc3C2(C)C)cn1)C(F)(F)F (single isomer, unassigned) [Example 216]",5.72
2,"CN1C(=O)CCC1C(=O)N(C)[C@@H](c1ccc(N[C@H]2Cc3ccccc3C2(C)C)cn1)C(F)(F)F (single isomer, unassigned) [Example 225]",6.28
3,"CN1C(=O)CCC1C(=O)N(C)[C@@H](c1ccc(N[C@H]2Cc3ccccc3C2(C)C)cn1)C(F)(F)F (single isomer, unassigned) [Example 226]",6.60
4,"CN(C(=O)C1CC2(CCC(=O)N2)C1)[C@@H](c1ccc(NC2Cc3ccccc3C2(C)C)cn1)C(F)(F)F (single isomer, unassigned) [Example 232]",6.74

# Further lines, results first:
row,pIC50,Compound
1,6.20,"CN(C(=O)C1C2CS(=O)(=O)CC21)[C@@H](c1ccc(NC2Cc3ccccc3C2(C)C)cn1)C(F)(F)F (single isomer, unassigned) [Example 215]"
2,7.00,"CNC(=O)N1CC(C(=O)N(C)[C@@H](c2ccc(NC3Cc4ccccc4C3(C)C)cn2)C(F)(F)F)C1 (single isomer, unassigned) [Example 227]"
3,6.00,"CNC(=O)N1CC(C(=O)N(C)[C@@H](c2ccc(NC3Cc4ccccc4C3(C)C)cn2)C(F)(F)F)C1 (single isomer, unassigned) [Example 228]"
4,6.49,"CN1CCC(C(=O)N(C)[C@@H](c2ccc(N[C@H]3Cc4ccccc4C3(C)C)cn2)C(F)(F)F)CC1=O (single isomer, unassigned) [Example 251]"
5,6.38,"CN1CC(C(=O)N(C)[C@@H](c2ccc(N[C@H]3Cc4ccccc4C3(C)C)cn2)C(F)(F)F)CCC1=O (single isomer, unassigned) [Example 253]"

# Target: T1, FL hMALT1 enzyme (Homo sapiens, UniProt Q9UDY8);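 note: Cell-free protease assay: enzyme preincubated with compound 30 min at room temperature, then cleavage of fluorogenic Ac-LVSR-AMC substrate (100 µM) tracked by fluorescence (ex 360/em 460 nm)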
# T1 sequence (Q9UDY8 1-824): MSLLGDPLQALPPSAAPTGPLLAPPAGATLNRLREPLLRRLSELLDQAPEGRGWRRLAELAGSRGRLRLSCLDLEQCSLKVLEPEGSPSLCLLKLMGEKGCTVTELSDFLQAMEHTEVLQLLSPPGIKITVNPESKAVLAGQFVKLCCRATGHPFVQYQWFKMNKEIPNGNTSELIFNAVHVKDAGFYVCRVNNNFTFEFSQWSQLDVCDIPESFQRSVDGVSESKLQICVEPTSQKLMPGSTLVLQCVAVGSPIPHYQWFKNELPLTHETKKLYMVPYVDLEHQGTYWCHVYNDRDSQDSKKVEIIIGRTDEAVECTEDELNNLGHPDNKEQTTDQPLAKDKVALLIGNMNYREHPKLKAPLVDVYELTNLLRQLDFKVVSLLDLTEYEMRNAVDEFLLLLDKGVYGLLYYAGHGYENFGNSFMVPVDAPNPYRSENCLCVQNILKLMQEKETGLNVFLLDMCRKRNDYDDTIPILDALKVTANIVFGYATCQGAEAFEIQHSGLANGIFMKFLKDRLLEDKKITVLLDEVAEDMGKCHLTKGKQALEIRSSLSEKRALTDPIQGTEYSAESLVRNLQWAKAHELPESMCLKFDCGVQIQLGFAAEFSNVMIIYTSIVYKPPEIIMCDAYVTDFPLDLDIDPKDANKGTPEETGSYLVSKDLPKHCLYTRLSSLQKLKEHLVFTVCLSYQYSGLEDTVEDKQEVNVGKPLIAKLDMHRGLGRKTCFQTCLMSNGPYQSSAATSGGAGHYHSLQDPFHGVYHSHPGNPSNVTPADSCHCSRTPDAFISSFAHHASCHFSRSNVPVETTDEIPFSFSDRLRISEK
# Test: biochemical
# Details: not given
row,Compound,pIC50
1,"CN(C(=O)C1CN(S(C)(=O)=O)C1)[C@@H](c1ccc(NC2Cc3ccccc3C2(C)C)cn1)C(F)(F)F (single isomer, unassigned) [Example 209]",7.28
2,"CN(C(=O)C1C2CS(=O)(=O)CC21)[C@@H](c1ccc(NC2Cc3ccccc3C2(C)C)cn1)C(F)(F)F (single isomer, unassigned) [Example 216]",7.29
3,"CN1C(=O)CCC1C(=O)N(C)[C@@H](c1ccc(N[C@H]2Cc3ccccc3C2(C)C)cn1)C(F)(F)F (single isomer, unassigned) [Example 225]",7.20
4,"CN1C(=O)CCC1C(=O)N(C)[C@@H](c1ccc(N[C@H]2Cc3ccccc3C2(C)C)cn1)C(F)(F)F (single isomer, unassigned) [Example 226]",7.41
5,"CN(C(=O)C1CC2(CCC(=O)N2)C1)[C@@H](c1ccc(NC2Cc3ccccc3C2(C)C)cn1)C(F)(F)F (single isomer, unassigned) [Example 232]",7.52
6,"CC(=O)N1CCC12CC(C(=O)N(C)[C@@H](c1ccc(NC3Cc4ccccc4C3(C)C)cn1)C(F)(F)F)C2 (single isomer, unassigned) [Example 235]",7.22
7,"COCCN1CCC12CC(C(=O)N(C)[C@@H](c1ccc(NC3Cc4ccccc4C3(C)C)cn1)C(F)(F)F)C2 (single isomer, unassigned) [Example 243]",7.07
8,"CN(C(=O)C1CC2(CCN2CCO)C1)[C@@H](c1ccc(NC2Cc3ccccc3C2(C)C)cn1)C(F)(F)F (single isomer, unassigned) [Example 249]",7.30
9,"CN1CC(C(=O)N(C)[C@@H](c2ccc(N[C@H]3Cc4ccccc4C3(C)C)cn2)C(F)(F)F)CCC1=O (single isomer, unassigned) [Example 252]",7.15
10,"CN(C(=O)C1CCS(=O)(=O)CC1)[C@@H](c1ccc(NC2Cc3cccc(C4CC4)c3C2)cn1)C(F)(F)F (single isomer, unassigned) [Example 254]",7.28

# Other lines, results leading:
row,pIC50,Compound
1,7.57,"CN(C(=O)[C@H]1C[C@@]2(COC(=O)N2)C1)[C@@H](c1ccc(NC2Cc3ccccc3C2(C)C)cn1)C(F)(F)F (single isomer, unassigned) [Example 208]"
2,7.06,"CN(C(=O)C1C2CS(=O)(=O)CC21)[C@@H](c1ccc(NC2Cc3ccccc3C2(C)C)cn1)C(F)(F)F (single isomer, unassigned) [Example 215]"
3,7.74,"CNC(=O)N1CC(C(=O)N(C)[C@@H](c2ccc(NC3Cc4ccccc4C3(C)C)cn2)C(F)(F)F)C1 (single isomer, unassigned) [Example 227]"
4,7.24,"CNC(=O)N1CC(C(=O)N(C)[C@@H](c2ccc(NC3Cc4ccccc4C3(C)C)cn2)C(F)(F)F)C1 (single isomer, unassigned) [Example 228]"
5,7.42,"CN(C(=O)C1CC2(CCC(=O)N2)C1)[C@@H](c1ccc(NC2Cc3ccccc3C2(C)C)cn1)C(F)(F)F (single isomer, unassigned) [Example 230]"
6,7.39,"CN1CCC(C(=O)N(C)[C@@H](c2ccc(N[C@H]3Cc4ccccc4C3(C)C)cn2)C(F)(F)F)CC1=O (single isomer, unassigned) [Example 250]"
7,7.49,"CN1CCC(C(=O)N(C)[C@@H](c2ccc(N[C@H]3Cc4ccccc4C3(C)C)cn2)C(F)(F)F)CC1=O (single isomer, unassigned) [Example 251]"
8,7.18,"CN1CC(C(=O)N(C)[C@@H](c2ccc(N[C@H]3Cc4ccccc4C3(C)C)cn2)C(F)(F)F)CCC1=O (single isomer, unassigned) [Example 253]"
